The source of these data is ChEMBL document CHEMBL5696441 (Nat Chem Biol, 2011).

The structures appear in SMILES notation.

Test [1] concerns the target Receptor-interacting serine/threonine-protein kinase 4 (Homo sapiens) (UniProt P57078). Nature of the test: Inhibition of RIPK4 (unknown origin) assessed as remaining activity at 1 uM by Kinome scan method relative to control.
Test [2] addresses cAMP-dependent protein kinase catalytic subunit beta (Homo sapiens) (UniProt P22694). Nature of the test: Inhibition of PKAC-beta (unknown origin) assessed as remaining activity at 1 uM by Kinome scan method relative to control.
The target in test [3] is Bone morphogenetic protein receptor type-1A (Homo sapiens) (UniProt P36894). Description: Inhibition of BMPR1A (unknown origin) assessed as remaining activity at 1 uM by Kinome scan method relative to control.
Sequence of Bone morphogenetic protein receptor type-1A (Homo sapiens) (P36894 whole entry): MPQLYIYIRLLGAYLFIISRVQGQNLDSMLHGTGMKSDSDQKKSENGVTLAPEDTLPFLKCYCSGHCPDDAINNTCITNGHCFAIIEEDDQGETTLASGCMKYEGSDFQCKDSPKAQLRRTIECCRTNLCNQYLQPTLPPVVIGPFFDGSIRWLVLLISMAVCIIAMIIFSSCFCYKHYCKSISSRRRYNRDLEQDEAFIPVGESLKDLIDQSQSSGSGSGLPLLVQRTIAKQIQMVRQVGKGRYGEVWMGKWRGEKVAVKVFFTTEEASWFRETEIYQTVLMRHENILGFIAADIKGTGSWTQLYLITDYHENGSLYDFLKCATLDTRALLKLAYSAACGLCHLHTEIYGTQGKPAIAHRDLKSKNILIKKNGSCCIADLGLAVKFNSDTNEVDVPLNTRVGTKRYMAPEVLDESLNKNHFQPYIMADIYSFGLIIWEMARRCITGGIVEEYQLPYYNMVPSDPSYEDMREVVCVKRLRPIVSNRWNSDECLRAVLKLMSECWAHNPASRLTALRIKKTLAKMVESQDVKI
Test [4] deals with Serine/threonine-protein kinase 33 (Homo sapiens) (UniProt Q9BYT3). Description: Inhibition of STK33 (unknown origin) assessed as remaining activity at 1 uM by Kinome scan method relative to control.
Test [5] addresses Serine/threonine-protein kinase 32B (Homo sapiens) (UniProt Q9NY57). Description: Inhibition of YANK2 (unknown origin) assessed as remaining activity at 1 uM by Kinome scan method relative to control.
For test [6], the system named is Tyrosine-protein kinase ABL1 (Homo sapiens), P00519 [F317I]. Description: Inhibition of ABL1 F317I mutant (unknown origin) assessed as remaining activity at 1 uM by Kinome scan method relative to control.
Sequence of Tyrosine-protein kinase ABL1 (Homo sapiens), P00519 [F317I] (P00519 whole entry F317I, the tested form may be a part): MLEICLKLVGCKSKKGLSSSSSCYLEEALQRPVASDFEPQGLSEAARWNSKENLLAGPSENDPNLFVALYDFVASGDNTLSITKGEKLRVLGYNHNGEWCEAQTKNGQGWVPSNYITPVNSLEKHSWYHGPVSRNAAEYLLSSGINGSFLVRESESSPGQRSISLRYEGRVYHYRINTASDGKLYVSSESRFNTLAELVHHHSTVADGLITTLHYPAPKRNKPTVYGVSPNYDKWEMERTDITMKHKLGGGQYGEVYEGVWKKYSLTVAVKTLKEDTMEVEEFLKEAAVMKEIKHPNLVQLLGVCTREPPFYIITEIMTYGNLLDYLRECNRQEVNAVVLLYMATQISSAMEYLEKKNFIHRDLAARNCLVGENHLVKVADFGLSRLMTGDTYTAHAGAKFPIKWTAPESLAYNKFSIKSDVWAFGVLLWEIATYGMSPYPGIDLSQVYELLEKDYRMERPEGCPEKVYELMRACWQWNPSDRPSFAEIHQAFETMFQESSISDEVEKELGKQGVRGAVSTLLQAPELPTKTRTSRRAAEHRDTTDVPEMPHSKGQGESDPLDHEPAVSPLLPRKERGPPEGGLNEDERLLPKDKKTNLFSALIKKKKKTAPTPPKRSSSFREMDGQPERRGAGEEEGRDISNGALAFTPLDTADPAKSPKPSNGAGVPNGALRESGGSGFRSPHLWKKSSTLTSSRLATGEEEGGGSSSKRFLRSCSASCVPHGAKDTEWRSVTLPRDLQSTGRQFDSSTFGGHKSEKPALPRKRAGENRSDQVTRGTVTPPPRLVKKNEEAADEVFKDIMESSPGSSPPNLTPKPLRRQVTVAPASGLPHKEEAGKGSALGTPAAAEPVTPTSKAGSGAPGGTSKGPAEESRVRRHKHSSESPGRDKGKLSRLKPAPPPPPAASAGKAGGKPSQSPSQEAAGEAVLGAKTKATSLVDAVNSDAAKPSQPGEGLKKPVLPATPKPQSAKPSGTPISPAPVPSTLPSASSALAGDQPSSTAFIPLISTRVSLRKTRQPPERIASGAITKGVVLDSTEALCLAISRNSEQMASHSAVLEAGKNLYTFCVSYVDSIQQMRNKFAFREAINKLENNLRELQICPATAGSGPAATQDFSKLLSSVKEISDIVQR
The target in test [7] is Ribosomal protein S6 kinase alpha-3 (Homo sapiens) (UniProt P51812). Nature of the test: Inhibition of N-terminal kinase domain RPS6KA3 (unknown origin) assessed as remaining activity at 1 uM by Kinome scan method relative to control.
Sequence of Ribosomal protein S6 kinase alpha-3 (Homo sapiens) (P51812 whole entry, the tested form may be a part): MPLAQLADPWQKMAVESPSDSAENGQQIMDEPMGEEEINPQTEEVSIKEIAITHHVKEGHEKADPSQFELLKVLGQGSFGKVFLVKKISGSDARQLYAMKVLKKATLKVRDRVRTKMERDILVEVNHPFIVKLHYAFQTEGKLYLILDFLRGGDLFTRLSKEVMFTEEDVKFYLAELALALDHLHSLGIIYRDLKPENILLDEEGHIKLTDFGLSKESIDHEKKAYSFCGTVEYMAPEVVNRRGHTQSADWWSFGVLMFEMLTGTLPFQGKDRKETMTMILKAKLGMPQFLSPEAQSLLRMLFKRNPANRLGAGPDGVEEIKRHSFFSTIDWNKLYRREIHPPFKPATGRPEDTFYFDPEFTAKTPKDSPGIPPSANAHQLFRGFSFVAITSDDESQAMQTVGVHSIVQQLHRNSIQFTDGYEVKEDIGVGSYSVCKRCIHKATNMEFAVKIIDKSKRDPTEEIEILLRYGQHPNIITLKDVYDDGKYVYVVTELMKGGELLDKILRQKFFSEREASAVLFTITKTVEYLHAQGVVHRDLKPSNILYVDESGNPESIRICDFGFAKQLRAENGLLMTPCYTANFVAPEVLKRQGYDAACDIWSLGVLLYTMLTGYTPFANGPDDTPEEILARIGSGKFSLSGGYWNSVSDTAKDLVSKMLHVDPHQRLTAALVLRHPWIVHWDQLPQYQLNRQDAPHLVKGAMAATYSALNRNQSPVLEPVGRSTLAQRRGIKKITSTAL
Test [8] concerns the target T1, cGMP-dependent protein kinase 1 (Homo sapiens) (UniProt Q13976).
T1 sequence (whole entry): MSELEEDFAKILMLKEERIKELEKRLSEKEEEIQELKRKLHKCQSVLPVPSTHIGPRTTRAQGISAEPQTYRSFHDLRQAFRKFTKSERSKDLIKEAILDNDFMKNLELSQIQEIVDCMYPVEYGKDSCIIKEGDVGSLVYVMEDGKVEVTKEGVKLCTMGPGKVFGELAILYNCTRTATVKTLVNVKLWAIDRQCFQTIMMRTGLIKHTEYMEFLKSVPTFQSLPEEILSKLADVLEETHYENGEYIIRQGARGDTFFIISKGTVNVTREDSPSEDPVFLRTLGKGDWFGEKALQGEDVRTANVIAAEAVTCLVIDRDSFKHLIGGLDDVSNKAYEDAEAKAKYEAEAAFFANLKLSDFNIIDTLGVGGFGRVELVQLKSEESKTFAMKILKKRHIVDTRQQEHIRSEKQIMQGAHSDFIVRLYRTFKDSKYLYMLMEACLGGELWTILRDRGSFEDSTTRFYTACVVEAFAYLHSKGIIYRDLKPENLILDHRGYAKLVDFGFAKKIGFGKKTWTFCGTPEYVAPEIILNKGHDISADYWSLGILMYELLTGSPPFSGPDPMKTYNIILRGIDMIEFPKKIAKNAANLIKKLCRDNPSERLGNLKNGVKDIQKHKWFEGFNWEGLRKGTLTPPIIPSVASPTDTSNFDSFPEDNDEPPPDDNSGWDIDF
Nature of the test: Inhibition of PRKG1 (unknown origin) assessed as remaining activity at 1 uM by Kinome scan method relative to control.

In test [9] the target is Casein kinase I isoform delta (Homo sapiens) (UniProt P48730). Description: Inhibition of CSNK1D (unknown origin) assessed as remaining activity at 1 uM by Kinome scan method relative to control.
The target in test [10] is T2, Serine/threonine-protein kinase Nek2 (Homo sapiens) (UniProt P51955).
T2 sequence (whole entry): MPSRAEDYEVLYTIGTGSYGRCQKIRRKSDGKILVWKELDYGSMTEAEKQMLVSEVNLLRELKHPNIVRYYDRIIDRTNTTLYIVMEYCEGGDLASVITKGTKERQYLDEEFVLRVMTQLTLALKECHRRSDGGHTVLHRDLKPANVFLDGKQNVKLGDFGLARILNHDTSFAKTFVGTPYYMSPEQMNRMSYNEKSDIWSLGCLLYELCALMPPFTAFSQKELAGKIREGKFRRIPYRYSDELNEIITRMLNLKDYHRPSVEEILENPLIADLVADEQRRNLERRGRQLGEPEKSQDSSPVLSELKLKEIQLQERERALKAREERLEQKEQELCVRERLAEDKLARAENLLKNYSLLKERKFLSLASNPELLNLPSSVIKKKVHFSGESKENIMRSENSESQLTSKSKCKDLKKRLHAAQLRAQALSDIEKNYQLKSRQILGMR
Description: Inhibition of NEK2 (unknown origin) assessed as remaining activity at 1 uM by Kinome scan method relative to control.

The target of test [11] is Serine/threonine-protein kinase 36 (Homo sapiens) (UniProt Q9NRP7). Description: Inhibition of STK36 (unknown origin) assessed as remaining activity at 1 uM by Kinome scan method relative to control.
Test [12] addresses Tyrosine-protein kinase ABL1 (Homo sapiens) (UniProt P00519). Nature of the test: Inhibition of ABL1 (unknown origin) assessed as remaining activity at 1 uM by Kinome scan method relative to control.
In test [13] the target is RAC-gamma serine/threonine-protein kinase (Homo sapiens) (UniProt Q9Y243). Description: Inhibition of AKT3 (unknown origin) assessed as remaining activity at 1 uM by Kinome scan method relative to control.
In test [14] the target is Tyrosine-protein kinase JAK2 (Homo sapiens) (UniProt O60674). Nature of the test: Inhibition of JAK2 JH1 domain (unknown origin) assessed as remaining activity at 1 uM by Kinome scan method relative to control.
Test [15] concerns Mast/stem cell growth factor receptor Kit (Homo sapiens), P10721 [D816V]. Nature of the test: Inhibition of KIT D816V mutant (unknown origin) assessed as remaining activity at 1 uM by Kinome scan method relative to control.
In test [16] the target is BMP-2-inducible protein kinase (Homo sapiens) (UniProt Q9NSY1). Description: Inhibition of BIKE (unknown origin) assessed as remaining activity at 1 uM by Kinome scan method relative to control.
Sequence of BMP-2-inducible protein kinase (Homo sapiens) (Q9NSY1 whole entry, looked up): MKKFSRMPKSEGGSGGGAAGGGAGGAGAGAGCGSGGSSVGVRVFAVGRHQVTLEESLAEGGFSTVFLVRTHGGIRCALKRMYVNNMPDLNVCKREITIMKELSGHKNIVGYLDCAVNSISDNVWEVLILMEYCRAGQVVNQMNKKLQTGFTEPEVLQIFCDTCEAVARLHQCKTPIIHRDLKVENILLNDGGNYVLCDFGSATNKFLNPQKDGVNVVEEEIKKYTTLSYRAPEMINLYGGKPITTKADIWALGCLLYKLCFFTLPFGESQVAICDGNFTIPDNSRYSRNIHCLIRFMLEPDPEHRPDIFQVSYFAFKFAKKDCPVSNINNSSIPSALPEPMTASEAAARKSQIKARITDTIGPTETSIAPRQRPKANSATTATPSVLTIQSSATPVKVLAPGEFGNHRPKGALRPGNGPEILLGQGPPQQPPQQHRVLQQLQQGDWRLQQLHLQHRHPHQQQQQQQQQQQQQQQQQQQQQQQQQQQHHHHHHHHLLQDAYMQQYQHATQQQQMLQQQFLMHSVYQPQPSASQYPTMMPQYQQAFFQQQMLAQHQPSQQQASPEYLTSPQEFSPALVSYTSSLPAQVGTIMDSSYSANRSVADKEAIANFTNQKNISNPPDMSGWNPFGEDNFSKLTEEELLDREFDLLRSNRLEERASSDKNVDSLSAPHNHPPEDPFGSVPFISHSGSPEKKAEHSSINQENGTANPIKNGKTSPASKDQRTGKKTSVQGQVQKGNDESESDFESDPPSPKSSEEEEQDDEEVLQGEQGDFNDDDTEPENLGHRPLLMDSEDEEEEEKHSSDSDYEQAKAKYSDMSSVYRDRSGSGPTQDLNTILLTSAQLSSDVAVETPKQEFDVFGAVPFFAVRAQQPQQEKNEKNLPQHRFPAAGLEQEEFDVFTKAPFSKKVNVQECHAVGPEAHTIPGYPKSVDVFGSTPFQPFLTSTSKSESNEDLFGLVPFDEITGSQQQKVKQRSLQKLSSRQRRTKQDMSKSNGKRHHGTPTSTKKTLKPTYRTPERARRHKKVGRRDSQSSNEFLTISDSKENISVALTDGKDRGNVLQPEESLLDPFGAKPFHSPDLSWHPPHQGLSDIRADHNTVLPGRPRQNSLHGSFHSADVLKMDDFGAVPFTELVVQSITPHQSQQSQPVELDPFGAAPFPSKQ
Test [17] concerns the target Maternal embryonic leucine zipper kinase (Homo sapiens) (UniProt Q14680). Description: Inhibition of MELK (unknown origin) assessed as remaining activity at 1 uM by Kinome scan method relative to control.
Test [18] deals with Phosphatidylinositol 4,5-bisphosphate 3-kinase catalytic subunit alpha isoform (Homo sapiens), P42336 [C420R]. Description: Inhibition of PIK3CA C420R mutant (unknown origin) assessed as remaining activity at 1 uM by Kinome scan method relative to control.
The target in test [19] is Death-associated protein kinase 2 (Homo sapiens) (UniProt Q9UIK4). Description: Inhibition of DAPK2 (unknown origin) assessed as remaining activity at 1 uM by Kinome scan method relative to control.
Sequence of Death-associated protein kinase 2 (Homo sapiens) (Q9UIK4 whole entry, looked up): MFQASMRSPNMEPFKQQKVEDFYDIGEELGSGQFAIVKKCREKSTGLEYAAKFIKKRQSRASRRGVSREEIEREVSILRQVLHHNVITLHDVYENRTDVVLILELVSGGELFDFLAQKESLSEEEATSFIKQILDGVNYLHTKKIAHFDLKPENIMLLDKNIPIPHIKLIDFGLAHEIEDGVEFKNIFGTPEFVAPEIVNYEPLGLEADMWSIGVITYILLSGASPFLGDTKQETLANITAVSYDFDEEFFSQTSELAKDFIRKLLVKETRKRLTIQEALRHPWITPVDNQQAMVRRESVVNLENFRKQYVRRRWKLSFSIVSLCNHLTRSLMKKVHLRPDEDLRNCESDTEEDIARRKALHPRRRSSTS
Test [20] deals with Serine/threonine-protein kinase BRSK2 (Homo sapiens) (UniProt Q8IWQ3). Nature of the test: Inhibition of BRSK2 (unknown origin) assessed as remaining activity at 1 uM by Kinome scan method relative to control.

Sequence of Tyrosine-protein kinase ABL1 (Homo sapiens) (P00519 whole entry): as the sequence (P00519 whole entry F317I, the tested form may be a part) above, with I317F counted along it
Sequence of Receptor-interacting serine/threonine-protein kinase 4 (Homo sapiens) (P57078 whole entry): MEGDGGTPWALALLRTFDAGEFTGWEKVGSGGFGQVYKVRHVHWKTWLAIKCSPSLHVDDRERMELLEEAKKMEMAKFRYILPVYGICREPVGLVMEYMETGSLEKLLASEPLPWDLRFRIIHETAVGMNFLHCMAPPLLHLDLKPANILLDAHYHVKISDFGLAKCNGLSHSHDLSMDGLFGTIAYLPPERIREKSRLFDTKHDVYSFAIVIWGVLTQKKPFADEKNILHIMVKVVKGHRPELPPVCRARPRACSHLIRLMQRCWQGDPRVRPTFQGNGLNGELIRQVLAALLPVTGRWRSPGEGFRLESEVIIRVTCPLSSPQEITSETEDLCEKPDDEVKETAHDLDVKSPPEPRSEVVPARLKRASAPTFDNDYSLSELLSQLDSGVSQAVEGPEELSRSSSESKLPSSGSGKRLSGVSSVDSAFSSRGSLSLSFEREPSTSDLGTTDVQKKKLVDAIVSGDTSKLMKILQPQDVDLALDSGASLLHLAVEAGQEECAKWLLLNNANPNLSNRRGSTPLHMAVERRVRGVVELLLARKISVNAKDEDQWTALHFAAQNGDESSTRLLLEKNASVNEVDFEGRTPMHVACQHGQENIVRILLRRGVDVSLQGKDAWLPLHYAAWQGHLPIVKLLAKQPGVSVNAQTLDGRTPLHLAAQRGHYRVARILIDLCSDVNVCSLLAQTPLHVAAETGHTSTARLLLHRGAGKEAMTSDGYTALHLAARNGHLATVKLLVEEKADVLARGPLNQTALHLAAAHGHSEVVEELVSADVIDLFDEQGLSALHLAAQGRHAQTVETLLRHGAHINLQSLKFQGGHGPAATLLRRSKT

As for `Nc1ccccc1Nc1ccc2c(c1)CCc1ccccc1C2=O`, the Activity was found to be 80% in test [1]; 88% in test [2]; 98% in test [3]; 82% in test [4]; 89% in test [5]; 78% in test [6]. The Activity was found to be 97% in [7]; 88% in test [8]; 98% in test [9]; 90% in test [10]; 97% in test [11]; 84% in test [12]. In addition, the Activity in [13] turned out to be 88%; in test [14], 80%; in [15], 85%; in [16], 50%; in test [17], 86%; in test [18], 91%. For the same compound, the Activity in [19] stood at 99%; in [20] it was 91%.
Take `O=C1c2ccc(Nc3ccc(F)cc3F)cc2CCc2ccc(OC[C@H](O)CO)cc21` [Skepinone-L]: the Activity in test [1] was 90%; in test [2], 74%; in [3] it was 100%; in test [4], 100%; in test [5], 98%; in [6] it was 92%. In addition, the Activity was determined as 93% in [7]; 100% in [8]; 100% in [9]; 94% in test [10]; 98% in test [11]; 94% in test [12]. In addition, the Activity was determined as 90% in [13]; 100% in [14]; 89% in [15]; 37% in test [16]; 94% in test [17]; 100% in test [18]. For the same compound, the Activity in test [19] was 93%; in [20], 94%.
